Test systems include MCF7; PC-3; CCRF-CEM; DU-145; KM12; RPMI-8226; MOLT-4; M14; SK-MEL-2; SF-268; RXF 393; A498; MDA-N; K562; SW-620; TK-10; SK-MEL-5; SK-OV-3; Hs-578T.
Test in all cases: NCI-60 cell line screen, 48 h

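Compound exposure: 48 hours, 5 concentrations, 96-well plates. Here, GI50 denotes the concentration required for 50% inhibition of growth.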 Active and inactive are the calls of the source. Cut-off read from the data, not from the text of the source: active = GI50 up to about 1.1 µM and inactive = higher.

In the case of `O=c1c2ccccc2n2nnc3ccc(NCCCNCCNCCCNc4ccc5nnn6c7ccccc7c(=O)c4c56)c1c32`, the GI50 in the assay on MCF7 is 0.447 µM (active); in the assay with PC-3 it was 3.21 µM (inactive); in the assay on CCRF-CEM, 0.448 µM (active); with DU-145, 5.77 µM (inactive); in the assay with KM12, 3.24 µM (inactive); in the assay on RPMI-8226, 0.716 µM (active). Besides, the GI50 with MOLT-4 was 0.0582 µM (active); in the assay with M14 it was > 12.6 µM (inactive); in the assay on SK-MEL-2, > 50 µM (inactive); in the assay on SF-268 it was 1.79 µM (inactive); with RXF 393, 1.37 µM (inactive); in the assay on A498 it was 16.3 µM (inactive). For the same molecule, the GI50 in the assay with MDA-N was 1.38 µM (inactive); in the assay with K562, 0.215 µM (active); in the assay on SW-620, 0.251 µM (active); with TK-10, 0.832 µM (active); in the assay with SK-MEL-5 it was > 50 µM (inactive); in the assay with SK-OV-3 it was > 20.3 µM (inactive). Also, the GI50 in the assay with Hs-578T is 5.52 µM (inactive).
Regarding `S=C(S)NCC1CCC(CNC(=S)S)CC1` (centres undefined), the GI50 was 17.9 µM (inactive) in the assay with MCF7; 17.8 µM (inactive) in the assay on PC-3; 10.7 µM (inactive) in the assay with CCRF-CEM; 26 µM (inactive) in the assay on DU-145; 19.7 µM (inactive) with KM12; 9.18 µM (inactive) in the assay on RPMI-8226. The GI50 is 29.2 µM (inactive) with MOLT-4; 82.8 µM (inactive) in the assay with M14; 23.3 µM (inactive) in the assay with SK-MEL-2; 39.2 µM (inactive) in the assay on SF-268; 20 µM (inactive) in the assay with RXF 393; > 100 µM (inactive) in the assay on A498. The GI50 was 26.7 µM (inactive) in the assay with MDA-N; 14.2 µM (inactive) in the assay on K562; 47.5 µM (inactive) in the assay with SW-620; 22.6 µM (inactive) in the assay with TK-10; 87.9 µM (inactive) in the assay on SK-MEL-5; > 100 µM (inactive) with SK-OV-3. The GI50 in the assay on Hs-578T is > 100 µM (inactive).
With `CN(CC1(CO)CCC1)c1cc(Cl)nc(N)n1`, the GI50 in the assay on MCF7, with PC-3, in the assay with CCRF-CEM, in the assay with DU-145, in the assay with KM12 and in the assay with RPMI-8226 was > 100 µM (inactive) throughout. The GI50 in the assay with MOLT-4, with M14, in the assay on SK-MEL-2, with SF-268, with RXF 393 and in the assay on A498 was > 100 µM (inactive) in each case. Further, the GI50 with MDA-N, in the assay with K562, with SW-620, with TK-10, with SK-MEL-5 and with SK-OV-3 was > 100 µM (inactive) throughout. The GI50 in the assay on Hs-578T was > 100 µM (inactive).
On to `Cc1cc2nc(N3C(=O)/C(=C/c4ccccc4S)N=C3c3ccccc3)sc2cc1C`, for which the GI50 in the assay with MCF7 was 20 µM (inactive); with PC-3, 18.5 µM (inactive); in the assay on CCRF-CEM, 18.8 µM (inactive); with DU-145, 58.9 µM (inactive); in the assay with KM12 it was 34 µM (inactive); in the assay on RPMI-8226 it was 19.2 µM (inactive). The GI50 in the assay on MOLT-4 is 15.4 µM (inactive); in the assay on M14, 34 µM (inactive); in the assay with SK-MEL-2 it was 18.2 µM (inactive); with SF-268, 40.8 µM (inactive); in the assay on RXF 393, 29.3 µM (inactive); in the assay with A498 it was 21.7 µM (inactive). Also, the GI50 with MDA-N was 11.6 µM (inactive); in the assay on K562 it was 29.3 µM (inactive); in the assay on SW-620, 37.5 µM (inactive); in the assay with TK-10, 58.1 µM (inactive); with SK-MEL-5, 29 µM (inactive); in the assay on SK-OV-3 it was 99.5 µM (inactive). Moreover, in the assay with Hs-578T, the GI50 is 39.2 µM (inactive).
For the molecule `O=C1/C(=C\c2ccco2)Oc2ccccc21`, the GI50 in the assay with MCF7 was 29.4 µM (inactive); in the assay with PC-3, > 100 µM (inactive); in the assay with CCRF-CEM, > 100 µM (inactive); with DU-145 it was > 100 µM (inactive); with KM12, > 100 µM (inactive); in the assay on RPMI-8226, 89.5 µM (inactive). Also, the GI50 is 23.7 µM (inactive) in the assay on MOLT-4; > 100 µM (inactive) in the assay on M14; > 100 µM (inactive) in the assay with SK-MEL-2; > 100 µM (inactive) with SF-268; > 100 µM (inactive) in the assay with RXF 393; > 100 µM (inactive) in the assay with A498. Further, the GI50 in the assay on MDA-N, with K562, with SW-620, in the assay on TK-10, in the assay with SK-MEL-5 and in the assay on SK-OV-3 was > 100 µM (inactive) each time. The GI50 in the assay with Hs-578T is > 100 µM (inactive).
Take `Cc1ccc2c(n1)C(=O)C=CC2=O`: the GI50 was 5.33 µM (inactive) with MCF7; 16.8 µM (inactive) in the assay with PC-3; 1.17 µM (inactive) with CCRF-CEM; 14.8 µM (inactive) in the assay on DU-145; 21.2 µM (inactive) with KM12; 2.59 µM (inactive) in the assay on RPMI-8226. The GI50 with MOLT-4 is 2.61 µM (inactive); in the assay on M14 it was 15 µM (inactive); in the assay on SK-MEL-2, 16.7 µM (inactive); in the assay on SF-268, 20.9 µM (inactive); in the assay on RXF 393, 5.93 µM (inactive); with A498, 16.8 µM (inactive). Besides, the GI50 in the assay on MDA-N was 7.4 µM (inactive); with K562, 3.1 µM (inactive); in the assay with SW-620, 3 µM (inactive); in the assay on TK-10 it was 2.52 µM (inactive); in the assay with SK-MEL-5 it was 14.9 µM (inactive); in the assay with SK-OV-3, 18.3 µM (inactive). Besides, the GI50 with Hs-578T is 30.8 µM (inactive).
For the molecule `Cc1ccc(S(=O)(=O)/N=C2/N(C)CCCS2(=O)=O)cc1`, the GI50 in the assay with MCF7, with PC-3, with CCRF-CEM, with DU-145, in the assay on KM12 and with RPMI-8226 was > 100 µM (inactive) each time. Further, the GI50 in the assay with MOLT-4, with M14, in the assay on SK-MEL-2, in the assay with SF-268, in the assay on RXF 393 and in the assay with A498 was > 100 µM (inactive) throughout. Further, the GI50 with MDA-N, in the assay with K562, in the assay on SW-620, in the assay with TK-10, in the assay on SK-MEL-5 and in the assay on SK-OV-3 was > 100 µM (inactive) each time. Moreover, the GI50 with Hs-578T was > 100 µM (inactive).
`COc1ccc(/N=C2\C(=S)N(c3ccc(OC)cc3)/C(=N/S(=O)(=O)c3ccccc3)N2c2ccccc2)cc1`: the GI50 in the assay with MCF7 was 17 µM (inactive); in the assay with PC-3, 4.67 µM (inactive); in the assay with CCRF-CEM it was 2.59 µM (inactive); in the assay on DU-145, 22.1 µM (inactive); with KM12, 13.2 µM (inactive); in the assay on RPMI-8226, 1.45 µM (inactive). The GI50 in the assay with MOLT-4 is 0.953 µM (active); in the assay on M14, 4.9 µM (inactive); with SK-MEL-2, 7.64 µM (inactive); with SF-268 it was 8.87 µM (inactive); in the assay with RXF 393, 5.22 µM (inactive); in the assay with A498, > 100 µM (inactive). For the same molecule, the GI50 in the assay on MDA-N is 3.93 µM (inactive); with K562, 1.02 µM (active); in the assay on SW-620 it was 2.62 µM (inactive); with TK-10 it was 14.7 µM (inactive); in the assay with SK-MEL-5 it was 4.57 µM (inactive); with SK-OV-3 it was > 39.9 µM (inactive). For the same molecule, the GI50 with Hs-578T is 17.9 µM (inactive).
Regarding `CN/C(N)=N/N=C1/C(=O)Nc2ccccc21`, the GI50 in the assay with MCF7, with PC-3, with CCRF-CEM, in the assay with DU-145, with KM12 and in the assay on RPMI-8226 was > 100 µM (inactive) each time. Further, the GI50 with MOLT-4, with M14, with SK-MEL-2, in the assay with SF-268, in the assay with RXF 393 and in the assay with A498 was > 100 µM (inactive) in each case. For the same molecule, the GI50 with MDA-N, in the assay on K562, in the assay with SW-620, with TK-10, in the assay on SK-MEL-5 and with SK-OV-3 was > 100 µM (inactive) each time. For the same molecule, the GI50 with Hs-578T was > 100 µM (inactive).
Consider `NNc1ccccc1Cl`, for which the GI50 in the assay with MCF7 was > 100 µM (inactive); in the assay with PC-3, 69.2 µM (inactive); with CCRF-CEM, 43.1 µM (inactive); with DU-145 it was > 100 µM (inactive); in the assay with KM12, > 100 µM (inactive); with RPMI-8226, > 100 µM (inactive). Also, the GI50 in the assay with MOLT-4 is 36.2 µM (inactive); in the assay with M14, > 100 µM (inactive); in the assay with SK-MEL-2, > 100 µM (inactive); in the assay with SF-268, > 100 µM (inactive); with RXF 393 it was > 100 µM (inactive); in the assay on A498, > 100 µM (inactive). The GI50 with MDA-N was > 100 µM (inactive); in the assay with K562 it was 4.34 µM (inactive); with SW-620 it was > 100 µM (inactive); in the assay with TK-10, > 100 µM (inactive); with SK-MEL-5, 30.5 µM (inactive); in the assay with SK-OV-3 it was > 100 µM (inactive). In the assay with Hs-578T, the GI50 was > 100 µM (inactive).
Regarding `OCCCCCNc1nc(O)c2[nH]cnc2n1`, the GI50 was > 10 µM (inactive) with MCF7; > 100 µM (inactive) in the assay on PC-3; > 100 µM (inactive) in the assay with CCRF-CEM; > 100 µM (inactive) with DU-145; > 100 µM (inactive) with KM12; > 100 µM (inactive) with RPMI-8226. The GI50 was > 100 µM (inactive) in the assay on MOLT-4; > 100 µM (inactive) in the assay with M14; > 100 µM (inactive) in the assay with SK-MEL-2; > 100 µM (inactive) with SF-268; > 10 µM (inactive) with RXF 393; > 100 µM (inactive) with A498. The GI50 with MDA-N was > 100 µM (inactive); in the assay with K562, > 100 µM (inactive); in the assay on SW-620, > 100 µM (inactive); with TK-10, > 100 µM (inactive); in the assay on SK-MEL-5, > 100 µM (inactive); with SK-OV-3, > 10 µM (inactive). In addition, the GI50 in the assay with Hs-578T is 90.8 µM (inactive).

Source of the values: ChEMBL document CHEMBL1201862, “PubChem BioAssay data set” (2004).
